Data as given in patent US11648381B2, “Thermally controlled residence devices” (Massachusetts Institute of Technology, priority 2018, dated 2023).

Tests used:
[1] = drug stability in simulated gastric fluid; format: physicochemical; conditions: SGF pH 1.2, 37° C., 24 hour duration; HPLC-UV
Description: Given that the tested residence device is designed to reside in the stomach for an extended period, the drug stability was analyzed in simulated gastric fluid (0.2% w/v sodium chloride, and 0.7% w/v hydrochloric acid, adjusted to pH-1.2; referred to as SGF). Moxifloxacin was dissolved in SGF and placed at 37° C. At various times, part of the solution was aliquoted and stored at about −20° C. until further analysis. For carbamazepine, the drug was first dissolved in methanol and then diluted in SGF (at least 100-fold). At various times, part of the solution was collected and stored at −20° C. On completion of the study, drug concentration in the various aliquots was measured using high performance liquid chromatography-ultraviolet (HPLC-UV) analysis (High Performance Liquid Chromatography).

[2] = drug stability at elevated temperature; format: physicochemical; conditions: 120° C., may be reached during manufacturing of the dosage form
Description: Additionally, drug stability was evaluated for an elevated temperature of 120° C. which may be reached during the manufacturing of the dosage form.

[3] = in vitro drug release from drug-polymer matrices in simulated gastric fluid; format: physicochemical; conditions: addition of water soluble polymers such as PEG 3350 and Kolliphor P 407 to the polymer matrix; SGF with 5% (w/v) Tween 20
Description: To perform the release study, drug-polymer matrices ( 1 cm in length) were incubated with 50 ml of the respective release medium in a 37° C. incubator shaker at 50 rpm. At various times, 1 ml of the release medium was collected and stored at -20° C. until further analysis. The remaining medium was discarded, and the arms were incubated with fresh medium. For measuring drug concentrations in the release medium, all specimens (beam-like arms) were thawed, centrifuged at 1500 g for 10 min, and analyzed using high-performance liquid chromatography (HPLC). Depending on the drug used, the links had excipients and elasticizers added to enhance the drug release and mechanical properties, respectively. For both moxifloxacin ([…], Inc) and carbamazepine (Ark Pharm, Inc), poly(ethylene glycol) (PEG) (molecular weight-3350 Da, Spectrum Corp.), Kolliphor® P 407 (BASF), and EUDRAGIT® E PO (Evonik) were used as excipients. For carbamazepine, CarbothaneTM TPU P[…] was used as an elasticizer. For X-ray visualization, 15% weight ratio of BaSO4 was added. Various polymeric formulations were investigated for controlled release of the drugs. The in vitro drug release was also investigated by changing drug loading and the composition of excipients, as well as application of polymeric coating (using a solution of 5.4% PCL (w/v) and 0.6% EUDRAGIT® E PO (w/v) in acetone). […]

[4] = solubility in simulated gastric fluid; format: physicochemical
[5] = in vivo prolonged drug delivery, blood concentration versus time; design: species or system Yorkshire pigs; conditions: pigs
Description: To evaluate the ability of residence devices loaded with the selected carbamazepine formulation to achieve gastric retention, the above described residence device was administered to a large animal model (three 35 to 50 kg Yorkshire pigs for each drug). Following overnight fasting and sedation of the animals, an overtube (US Endoscopy), with endoscopic guidance, was placed into the stomach to facilitate direct gastric delivery of the residence device. A residence devices folded into a cylindrical shape of length 20 cm and diameter of 12 mm (see the folded configuration in FIG. 1A) was administered via the overtube into the stomach of each pig, and the overtube was then removed. […] Serial radiographs were performed immediately afterwards and every 48-72 hours to monitor the integrity and transit of the devices as well as any radiographic evidence of bowel obstruction. In addition, animals were monitored clinically at least twice a day for any evidence of morbidity, including lethargy, inappetence, decreased fecal output, abdominal distension and vomiting. […] Endoscopic evaluation of the stomach over the course of the study was performed to further explore the stomach and ensure the absence of any ulceration or injury. Blood samples were taken at the following time points, 0 min (before administration of the dosage form), 5 min, 15 min, 30 min, 2 hours, 6 hours, daily for a minimum of 5 days, and then three times for the second week from peripheral veins under sedation.
One hundred microliters of each blood sample was spiked with 200 μl of 250 ng/mL internal standard (imipramine for carbamazepine) with acetonitrile added to elicit protein precipitation. Samples were vortexed, sonicated, and centrifuged prior to being pipetted into a well plate containing 200 μl of nanopure water. Finally, the samples were injected into an Ultra Performance Liquid Chromatography tandem mass spectrometry (UPLC-MS/MS) for analysis.

COc1c(N2C[C@@H]3CCCN[C@@H]3C2)c(F)cc2c(=O)c(C(=O)O)cn(C3CC3)c12 [moxifloxacin]
stability in SGF [1]: stable
drug degradation at elevated temperature [2]: no appreciable drug degradation

NC(=O)N1c2ccccc2C=Cc2ccccc21 [carbamazepine]
stability in SGF [1]: stable
increase in release of carbamazepine [3]: greater than 3 fold
solubility in simulated gastric fluid (SGF) [4]: limited solubility
drug degradation at elevated temperature [2]: no appreciable drug degradation
carbamazepine concentration versus time profile ([5]; 14 day residence time, UPLC-MS/MS): initial spike in concentration was observed in the first day followed by relatively uniform concentrations
area under the curve as compared to immediate release formulations ([5]; residence device): enhanced area under the curve
maximum concentration as compared to immediate release formulations ([5]; residence device): lower maximum concentration
duration of drug delivery after a single administration ([5]; residence device, direct gastric delivery): up to 14 days
